The results in this text go back to BindingDB's records for patent US12398118 (Beijing Tide Pharmaceutical, 2025).

The target in assay [1] is Rho-associated protein kinase 2 (Homo sapiens, UniProt O75116). Put plainly: Biological Assay. The protocol: Before the assay, the following working solutions as needed were formulated with corresponding reagents according to the instruction of the kinase detection kit: 1×kinase buffer, 5×STK-S2 substrate working solution (1.5 μM) and 5×ATP working solution (1.5 μM), 5×ROCK2 kinase working solution, 4×Streptavidin-XL665 working solution, and 4×STK-Ab-Cryptate 2 detection solution. Then the assay was performed according to the following procedure.A solution of a compound at a concentration of 10000 nM was prepared with the 1×kinase buffer containing 2.5% DMSO. Gradient dilution of the solution of the compound was performed with the kinase buffer containing DMSO, so as to obtain solutions of a test compound at 9 different concentrations. In addition to wells of test compounds, a positive well (containing all the reagents except the compound) and a negative well (containing all the reagents except the test compound and kinase) were set. Except for the control wells (positive and negative wells), a solution of a test compound (4 μL) was added to each of the reaction wells, and a solution of 2.5% DMSO was added to the control wells. Then the substrate ([…], i.e., 2 μL 5×STK-S2 substrate working solution) was added to each of the reaction wells. The 5×ROCK2 kinase working solution (2 μL, containing 1.4 ng ROCK2 kinase) was added to each of the reaction wells except for the negative well, the volume of which was made up with the 1×kinase buffer (2 μL). The 5×ATP working solution (2 μL) was added to each of the reaction wells, and the mixtures were incubated at room temperature for 2 hours. After the kinase reaction was complete, the 4×Streptavidin-XL665 working solution was added to each of the reaction wells, the solutions were mixed, followed by immediate addition of the 4×STK-Ab-Cryptate 2 detection solution (5 μL), and the mixtures were incubated at room temperature for 1 hour.

Assay [2] has as its target Rho-associated protein kinase 1 (Homo sapiens, UniProt Q13464). The assay can be described thus: Biological Assay.

The structures appear in SMILES notation. pIC50: −log10 of the molar value.

Rho-associated protein kinase 2, sequence (O75116 whole entry): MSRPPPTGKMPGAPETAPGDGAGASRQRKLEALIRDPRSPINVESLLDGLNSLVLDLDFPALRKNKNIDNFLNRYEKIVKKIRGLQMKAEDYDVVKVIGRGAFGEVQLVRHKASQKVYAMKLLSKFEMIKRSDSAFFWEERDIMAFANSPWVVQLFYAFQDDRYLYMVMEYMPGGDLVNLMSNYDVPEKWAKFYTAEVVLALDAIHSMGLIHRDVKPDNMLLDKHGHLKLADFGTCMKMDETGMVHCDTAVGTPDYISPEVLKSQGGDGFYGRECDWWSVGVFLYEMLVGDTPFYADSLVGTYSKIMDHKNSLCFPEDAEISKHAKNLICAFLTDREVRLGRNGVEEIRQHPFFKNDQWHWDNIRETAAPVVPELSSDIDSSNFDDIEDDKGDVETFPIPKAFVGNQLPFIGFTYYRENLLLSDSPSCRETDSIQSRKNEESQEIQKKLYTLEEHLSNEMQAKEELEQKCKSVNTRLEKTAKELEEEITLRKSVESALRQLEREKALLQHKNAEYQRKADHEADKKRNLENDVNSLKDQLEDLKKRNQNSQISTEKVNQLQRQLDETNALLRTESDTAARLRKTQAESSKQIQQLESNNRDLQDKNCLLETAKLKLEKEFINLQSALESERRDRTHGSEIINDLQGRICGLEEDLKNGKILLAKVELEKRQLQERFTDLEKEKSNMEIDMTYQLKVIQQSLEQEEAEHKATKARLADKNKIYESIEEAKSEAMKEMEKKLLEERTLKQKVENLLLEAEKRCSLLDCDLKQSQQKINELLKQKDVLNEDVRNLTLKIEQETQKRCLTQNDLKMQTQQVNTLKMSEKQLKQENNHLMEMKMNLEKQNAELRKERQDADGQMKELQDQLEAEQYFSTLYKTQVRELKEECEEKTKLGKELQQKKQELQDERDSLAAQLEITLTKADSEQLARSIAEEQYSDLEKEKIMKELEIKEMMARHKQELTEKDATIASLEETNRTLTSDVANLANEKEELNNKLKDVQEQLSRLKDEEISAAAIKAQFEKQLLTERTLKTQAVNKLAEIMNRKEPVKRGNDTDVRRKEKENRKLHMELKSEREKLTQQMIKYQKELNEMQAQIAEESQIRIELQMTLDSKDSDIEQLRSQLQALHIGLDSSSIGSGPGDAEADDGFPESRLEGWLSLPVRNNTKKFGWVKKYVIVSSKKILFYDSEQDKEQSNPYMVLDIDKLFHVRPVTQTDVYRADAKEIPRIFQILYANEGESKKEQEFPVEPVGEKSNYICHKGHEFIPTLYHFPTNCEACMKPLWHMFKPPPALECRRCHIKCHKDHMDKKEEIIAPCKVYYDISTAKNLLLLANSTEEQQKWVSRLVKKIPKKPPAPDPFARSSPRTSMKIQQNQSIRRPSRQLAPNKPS
Rho-associated protein kinase 1, sequence (Q13464 whole entry): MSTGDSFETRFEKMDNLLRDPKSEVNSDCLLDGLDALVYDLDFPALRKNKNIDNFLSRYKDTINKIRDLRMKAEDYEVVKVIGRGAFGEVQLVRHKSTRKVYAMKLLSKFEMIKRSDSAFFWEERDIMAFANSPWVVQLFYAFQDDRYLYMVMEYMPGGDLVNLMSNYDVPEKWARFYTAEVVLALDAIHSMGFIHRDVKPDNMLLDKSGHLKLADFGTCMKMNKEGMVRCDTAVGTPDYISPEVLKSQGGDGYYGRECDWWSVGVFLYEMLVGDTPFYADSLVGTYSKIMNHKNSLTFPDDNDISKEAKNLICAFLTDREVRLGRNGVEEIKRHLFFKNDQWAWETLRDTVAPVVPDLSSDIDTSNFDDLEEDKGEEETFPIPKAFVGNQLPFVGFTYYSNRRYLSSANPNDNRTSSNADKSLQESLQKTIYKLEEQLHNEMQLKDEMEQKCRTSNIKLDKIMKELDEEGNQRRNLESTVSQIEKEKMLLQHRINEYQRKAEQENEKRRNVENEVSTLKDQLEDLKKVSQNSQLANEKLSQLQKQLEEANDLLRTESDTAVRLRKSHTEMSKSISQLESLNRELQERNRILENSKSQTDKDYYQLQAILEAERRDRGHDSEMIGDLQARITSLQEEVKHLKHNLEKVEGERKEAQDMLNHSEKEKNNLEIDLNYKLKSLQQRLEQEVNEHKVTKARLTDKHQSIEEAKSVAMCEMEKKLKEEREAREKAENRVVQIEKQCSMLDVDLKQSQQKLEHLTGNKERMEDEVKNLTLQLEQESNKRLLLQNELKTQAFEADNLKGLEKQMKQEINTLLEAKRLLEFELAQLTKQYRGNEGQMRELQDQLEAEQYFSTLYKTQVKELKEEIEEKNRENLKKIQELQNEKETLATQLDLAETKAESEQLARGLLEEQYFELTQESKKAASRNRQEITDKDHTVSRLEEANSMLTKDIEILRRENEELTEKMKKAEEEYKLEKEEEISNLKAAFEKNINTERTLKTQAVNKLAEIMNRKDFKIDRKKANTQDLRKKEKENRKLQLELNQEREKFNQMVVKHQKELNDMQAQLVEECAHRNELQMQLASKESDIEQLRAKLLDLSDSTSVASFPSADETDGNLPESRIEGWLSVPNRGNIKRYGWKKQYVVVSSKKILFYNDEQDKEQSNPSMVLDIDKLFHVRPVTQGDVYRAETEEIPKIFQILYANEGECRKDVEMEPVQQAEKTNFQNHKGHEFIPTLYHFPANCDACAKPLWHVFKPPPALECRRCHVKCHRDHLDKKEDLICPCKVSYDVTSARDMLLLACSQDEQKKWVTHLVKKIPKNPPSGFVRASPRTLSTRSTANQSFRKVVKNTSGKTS

Consider `CC(C)(C)OC(=O)N1CCc2sc(-c3ncc(F)c(Nc4ccc5c(N)nccc5c4)n3)cc2C1` [US12398118, Compound C45], for which the values for the pIC50 in assay [1] and in assay [2] were 6.31 and less than 5.00, respectively.

With `O=C(OCC(F)(F)F)N1Cc2ccc(-c3ncc(F)c(Nc4ccc5c(=O)[nH]ccc5c4)n3)cc2C1` [US12398118, Compound C72], the pIC50 (as a rule, the IC50 on a negative log10 scale, so that one unit is a factor of ten) is 7.62 in assay [1] and less than 5.00 in assay [2].

`CC(C)(C)OC(=O)N1CCc2sc(-c3ncc(F)c(Nc4ccc5c(=O)[nH]ccc5c4)n3)cc2C1` [US12398118, Compound C28]: the values for the pIC50 in assay [1] and in assay [2] were 8.22 and less than 5.00, respectively.

The molecule `CC(OC(=O)N1CCc2sc(-c3ncc(F)c(Nc4ccc5c(c4)CCNC5=O)n3)cc2C1)C(F)(F)F` (stereo not drawn) [US12398118, Compound C43] showed a pIC50 in assay [1] of 7.15.

Regarding `O=C(OC1CCC(F)(F)CC1)N1CCc2cc(-c3ncc(F)c(Nc4ccc5c(=O)[nH]ccc5c4)n3)ccc2C1` [US12398118, Compound C35], the pIC50 is 7.03 in assay [1] and less than 5.00 in assay [2].

As for `O=C1NCCc2cc(Nc3nc(-c4cc5c(s4)CCN(C(=O)OCC(F)(F)F)C5)ncc3F)ccc21` [US12398118, Compound C75], the values for the pIC50 in assay [1] and in assay [2] were 7.43 and less than 5.00, respectively.

Turning to `CC(C)(C)CC(=O)N1CCc2sc(-c3ncc(F)c(Nc4ccc5c(=O)[nH]ccc5c4)n3)cc2C1` [US12398118, Compound C52], the pIC50 is 7.55 in assay [1] and less than 5.00 in assay [2].
